ChEMBL document CHEMBL1146178, “Synthesis and antiviral activity against tobacco mosaic virus and 3D-QSAR of alpha-substituted-1,2,3-thiadiazoleacetamides” (Bioorg Med Chem Lett, 2006)

Test system: Hepatitis B virus
Experiment: Antiviral activity against HBV in HepG2 2.2.15 cells assessed as inhibition of HBsAg at 0.6 umol/mL
Type: functional

SMILES | Inhibition [%]
CNC(=O)C(Oc1cc(C)ccc1Cl)c1csnn1 (stereo not given) | 88.6

Test system: Hepatitis B virus
Experiment: Antiviral activity against HBV in HepG2 2.2.15 cells assessed as inhibition of HBeAg at 0.6 umol/mL
Type: functional

SMILES | Inhibition [%]
CNC(=O)C(Oc1cc(C)ccc1Cl)c1csnn1 (stereo not given) | 15.5

Test system: Hepatitis B virus
Experiment: Antiviral activity against HBV in HepG2 2.2.15 cells assessed as inhibition of viral DNA synthesis
Type: functional, organism-based

SMILES | IC50 [µM]
CNC(=O)C(Oc1cc(C)ccc1Cl)c1csnn1 (stereo not given) | 400

Test system: Tobacco mosaic virus
Experiment: Antiviral activity against TMV at 500 mg/L
Type: functional

SMILES | inhibition at 500 µg/mL [%]
CNC(=O)C(Oc1ccc2ccccc2c1)c1csnn1 (stereo not given) | 44
CNC(=O)C(c1csnn1)[S+]([O-])c1ccc(F)cc1 (stereo not given) | 11
CNC(=O)C(Sc1ccc(F)cc1)c1csnn1 (stereo not given) | 33
CNC(=O)C(c1csnn1)S(=O)(=O)c1ccc(OC)cc1 (stereo not given) | 0
CNC(=O)C(Sc1ccc(Cl)cc1)c1csnn1 (stereo not given) | 42
CNC(=O)C(Sc1cc(C)ccc1C)c1csnn1 (stereo not given) | 0
CNC(=O)C(Oc1ccccc1Cl)c1csnn1 (stereo not given) | 53
CNC(=O)C(c1csnn1)[S+]([O-])c1ccc(Cl)cc1 (stereo not given) | 31
CNC(=O)C(Oc1ccc(Br)cc1)c1csnn1 (stereo not given) | 64
CNC(=O)C(c1csnn1)S(=O)(=O)c1ccccc1F (stereo not given) | 82
CNC(=O)C(c1csnn1)S(=O)(=O)Cc1ccc(Cl)cc1 (stereo not given) | 51
CNC(=O)C(SCc1ccc(Cl)cc1)c1csnn1 (stereo not given) | 35
CNC(=O)C(c1csnn1)S(=O)(=O)c1ccc(F)cc1 (stereo not given) | 19
CNC(=O)C(c1csnn1)S(=O)(=O)c1cc(C)ccc1C (stereo not given) | 12
CNC(=O)C(Sc1ccccc1F)c1csnn1 (stereo not given) | 37
CNC(=O)C(Sc1cc(Cl)ccc1Cl)c1csnn1 (stereo not given) | 0
CNC(=O)C(Oc1cc(C)ccc1Cl)c1csnn1 (stereo not given) | 56
CNC(=O)C(Sc1nnc(-c2c(C)nn(C)c2SC)s1)c1csnn1 (stereo not given) | 35
CNC(=O)C(c1csnn1)[S+]([O-])Cc1ccc(Cl)cc1 (stereo not given) | 20
CNC(=O)C(Oc1cccc(C)c1)c1csnn1 (stereo not given) | 5.5
CNC(=O)C(c1csnn1)n1cncn1 (stereo not given) | 42
CNC(=O)C(c1csnn1)[S+]([O-])c1ccccc1F (stereo not given) | 19
CNC(=O)C(Sc1nc2nc(C)cc(C)n2n1)c1csnn1 (stereo not given) | 5
CNC(=O)C(Oc1ccccc1Br)c1csnn1 (stereo not given) | 44
CNC(=O)C(c1csnn1)[S+]([O-])c1cc(C)ccc1C (stereo not given) | 0

Test system: Hepatitis B virus
Experiment: Antiviral activity against HBV in HepG2 2.2.15 cells assessed as inhibition of HBeAg at 0.4 umol/mL
Type: functional

SMILES | Inhibition [%]
CNC(=O)C(Oc1cc(C)ccc1Cl)c1csnn1 (stereo not given) | 44.2

Test system: Hepatitis B virus
Experiment: Antiviral activity against HBV in HepG2 2.2.15 cells assessed as inhibition of HBsAg at 0.4 umol/mL
Type: functional

SMILES | Inhibition [%]
CNC(=O)C(Oc1cc(C)ccc1Cl)c1csnn1 (stereo not given) | 52.9
